Starred links: 1 amine or outer side, 2 acyl side, 3 side chain; linkers in the order of their positions; H or OH if unused. Non-standard residues stand in square brackets, D forms with d. Residues, ends and D or L forms follow the SMILES beside them. *: point of attachment. X1 = O=C(CCCC[C@@H]1SC[C@@H]2NC(=O)N[C@@H]21)NCCCOCCOCCOCCCN*; pT = C[C@@H](OP(=O)(O)O)[C@H](N)C(=O)O; Suc = O=C(CCC(=O)[*:2])[*:1]
Assays:
Format in all cases: binding
[1] = target: seven human 14-3-3 isoforms; assay: Affinities averaged or compared across the 14-3-3 family (ΔΔGav, KD ratios, affinity maps); details: for KD ratios, compared to LRRK2 pS910/pS935, 14-3-3β / KD ratios, compared to LRRK2 pS910/pS935, 14-3-3γ / KD ratios, compared to LRRK2 pS910/pS935, 14-3-3ε / KD ratios, compared to LRRK2 pS910/pS935, 14-3-3ζ / KD ratios, compared to LRRK2 pS910/pS935, 14-3-3η / KD ratios, compared to LRRK2 pS910/pS935, 14-3-3σ / KD ratios, compared to LRRK2 pS910/pS935, 14-3-3τ / KD ratios, compared to LRRK2 pS910/pS935, average: Figure 4 panel b; for KD ratios, compared to LRRK2 pS910/pS935, average: average over the isoforms; for KD ratios, compared to 14-3-3γ, 14-3-3β / KD ratios, compared to 14-3-3γ, 14-3-3γ / KD ratios, compared to 14-3-3γ, 14-3-3ε / KD ratios, compared to 14-3-3γ, 14-3-3ζ / KD ratios, compared to 14-3-3γ, 14-3-3η / KD ratios, compared to 14-3-3γ, 14-3-3σ / KD ratios, compared to 14-3-3γ, 14-3-3τ: Figure 4 panel c; for binding to 14-3-3 proteins: competitive FP, seven MBP-fused full-length 14-3-3 isoforms, result in words; for ΔΔGav (average 14-3-3 binding free energy difference) relative to p35E6: averaged over 14-3-3 isoforms, 295 K; for KD ratio relative to p35E6: corresponds to ΔΔGav averaged over 14-3-3 isoforms
Excerpt: Former studies have measured the binding of the seven human 14-3-3 isoforms to unrelated phospho-motifs derived from Cystic Fibrosis Transmembrane Conductance Regulator (CFTR), Leucine-Rich Repeat Kinase 2 (LRRK2), Potassium channel subfamily K members (TASK1/3), C-Raf, the p65 subunit of the NF-κB transcription factor, and from Ubiquitin carboxyl-terminal hydrolase 8 (USP8), representing a wide variety of different 14-3-3-binding motifs, including C-terminal, internal, monovalent, or divalent motifs[40],[44]–[48].
(gray background). The color scale is either based on affinity values or on KD ratios. √ denotes affinities weaker than the limit of quantitation of the experimental assays. b Same map as in a, normalized to the strongest 14-3-3-binding motif. […] Source data are provided as a Source Data file.
All binding data and the obtained fits are provided as Supplementary Data File 1.

14-3-3ζ = target: T1, 14-3-3ζ (Homo sapiens, UniProt P63104); assay: biochemical
T1 construct: Plasmids containing the cDNAs of the full-length 14-3-3 isoforms ε, γ, and ζ were received; made in house; host or cells: E. coli BL21(DE3)
T1 sequence (P63104 1-245): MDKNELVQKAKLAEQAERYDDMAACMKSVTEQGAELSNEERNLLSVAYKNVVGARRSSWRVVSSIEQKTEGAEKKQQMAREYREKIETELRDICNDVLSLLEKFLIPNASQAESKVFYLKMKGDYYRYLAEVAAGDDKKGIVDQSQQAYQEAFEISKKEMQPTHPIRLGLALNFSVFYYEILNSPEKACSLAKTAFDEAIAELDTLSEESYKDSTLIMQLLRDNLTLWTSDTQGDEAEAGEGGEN
Protocol: (§1) The seven full-length human 14-3-3 isoforms, produced as fusions to a maltose-binding protein (MBP), were analyzed for their interaction with four phospho-PBMs from E6 proteins of HPV types 16, 18, 33, and 35 belonging to subgroups 1 and 2 (as defined in Supplementary Fig. 1). For comparison, we also measured two non-viral phospho-PBMs originating from protein kinase RSK1[28]. We used a competitive fluorescence polarization (FP) assay that measures the displacement of a fluorescent tracer phosphopeptide (here, derived from the HSPB6 protein) bound beforehand to 14-3-3, by an increasing amount of the peptide of interest.
(§2) For affinity measurements, full-length human 14-3-3 constructs with an N-terminal MBP fusion were used. Plasmids containing the cDNAs of the full-length 14-3-3 isoforms ε, γ, and ζ were received from Prof. Lawrence Banks. cDNAs encoding other full-length 14-3-3 isoforms β, τ, η, and σ were obtained as codon-optimized for E. coli expression synthetic genes from IDT Technologies (Coralville, Iowa, USA). All 14-3-3 isoforms were fused via a three-alanine linker to the C terminus of a mutant MBP carrying the following amino acid substitutions facilitating crystallization: D83A, K84A, K240A, E360A, K363A, and D364A[62]. All resulting clones were verified by sequencing. The MBP-fused proteins were expressed in E. coli BL21(DE3) with IPTG induction. Proteins were affinity purified on an amylose column and were further purified by ion-exchange chromatography (HiTrap Q HP, GE Healthcare). Unfused 14-3-3 isoforms devoid of the flexible C-terminal tails (14-3-3βΔC, 14-3-3τΔC 14-3-3εΔC) were expressed using IPTG induction and purified by subtractive IMAC and SEC[40]. Protein concentrations were determined by UV spectroscopy. The samples were supplemented with glycerol and TCEP before aliquoting and freezing in liquid nitrogen.
(§3) Unless otherwise stated, all phosphopeptide-binding measurements were performed using full-length 14-3-3 proteins fused to the C terminus of MBP, favoring optimal solubility and a standardized parallel purification scheme.
(§4) FP was measured with a PHERAstar (BMG Labtech, Offenburg, Germany) microplate reader by using 485 ± 20 and 528 ± 20 nm band-pass filters (for excitation and emission, respectively). In direct FP measurements, a dilution series of the 14-3-3 protein was prepared in 96-well plates (96-well skirted PCR plate, 4ti-0740, 4titude, Wotton, UK) in a 20 mM HEPES pH 7.5 buffer containing 150 mM NaCl, 0.5 mM TCEP, 0.01% Tween 20, 50 nM fluorescently labeled fpB6 peptide, and 100 μM FSC, if indicated. The volume of the dilution series was 40 μl, which was later divided into three technical replicates of 10 μl upon transferring to 384-well micro-plates (low binding microplate, 384 well, E18063G5, Greiner Bio-One, Kremsmünster, Austria). In total, polarization of the probe was measured at eight different protein concentrations (whereas one contained no protein and corresponded to the free peptide). In competitive FP measurements, the same buffer was supplemented with the protein to achieve a complex formation of 60–80%, based on the direct titration. Then, this mixture was used for creating a dilution series of the unlabeled competitor (i.e., the studied peptides) and the measurement was carried out identically as in the direct experiment.
(§5) All FP experiments were done in triplicates. Analysis of FP experiments were carried out using ProFit, an in-house developed, Python-based fitting program. ProFit utilizes a Monte Carlo approach to take into account experimental variability. It generates hundreds of simulated datasets, based on the experimental data variance and fits direct and competitive measurements in pairs.

14-3-3ε = target: T2, 14-3-3ε (Homo sapiens, UniProt P62258); assay: biochemical
T2 construct: Plasmids containing the cDNAs of the full-length 14-3-3 isoforms ε, γ, and ζ were received; made in house; host or cells: E. coli BL21(DE3)
T2 sequence (P62258 1-255): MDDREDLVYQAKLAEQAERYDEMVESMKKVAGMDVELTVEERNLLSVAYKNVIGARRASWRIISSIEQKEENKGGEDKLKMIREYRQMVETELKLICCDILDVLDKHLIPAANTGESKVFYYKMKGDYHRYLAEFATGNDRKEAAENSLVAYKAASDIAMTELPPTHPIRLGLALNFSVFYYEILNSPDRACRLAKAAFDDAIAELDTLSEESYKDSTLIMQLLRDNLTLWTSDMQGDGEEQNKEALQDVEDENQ
Protocol: as §1, §2, §3, §4, §5

SMILES | KD ratios, compared to LRRK2 pS910/pS935, 14-3-3β [1] | KD ratios, compared to LRRK2 pS910/pS935, 14-3-3γ [1] | KD ratios, compared to LRRK2 pS910/pS935, 14-3-3ε [1] | KD ratios, compared to LRRK2 pS910/pS935, 14-3-3ζ [1] | KD ratios, compared to LRRK2 pS910/pS935, 14-3-3η [1] | KD ratios, compared to LRRK2 pS910/pS935, 14-3-3σ [1] | KD ratios, compared to LRRK2 pS910/pS935, 14-3-3τ [1] | KD ratios, compared to LRRK2 pS910/pS935, average [1] | KD ratios, compared to 14-3-3γ, 14-3-3β [1] | KD ratios, compared to 14-3-3γ, 14-3-3γ [1] | KD ratios, compared to 14-3-3γ, 14-3-3ε [1] | KD ratios, compared to 14-3-3γ, 14-3-3ζ [1] | KD ratios, compared to 14-3-3γ, 14-3-3η [1] | KD ratios, compared to 14-3-3γ, 14-3-3σ [1] | KD ratios, compared to 14-3-3γ, 14-3-3τ [1] | binding to 14-3-3 proteins [1] | Kd (14-3-3ζ) [µM] | ΔΔGav (average 14-3-3 binding free energy difference) relative to p35E6 [1] | KD ratio relative to p35E6 [1] [fold] | Kd (14-3-3ε) [µM] | other results
CC(C)C[C@H](NC(=O)[C@H](CCCNC(=N)N)NC(=O)CCC(=O)NCCCOCCOCCOCCCNC(=O)CCCC[C@@H]1SC[C@@H]2NC(=O)N[C@@H]21)C(=O)N[C@@H](CCC(N)=O)C(=O)N[C@@H](CCCNC(=N)N)C(=O)N[C@@H](CCCNC(=N)N)C(=O)N[C@@H](CCCNC(=N)N)C(=O)N[C@@H](CCC(=O)O)C(=O)N[C@H](C(=O)N[C@@H](CCC(N)=O)C(=O)N[C@H](C(=O)O)C(C)C)[C@@H](C)OP(=O)(O)O [pHPV18E6] | 2000.00 | 3437.50 | 8145.16 | 4666.67 | 4916.67 | 2293.73 | 3978.95 | 4200.00 | 3.84 | 1.00 | 9.18 | 2.04 | 2.15 | 12.64 | 3.44 | detectably bound | 22.4 ± 1.3 | – | – | – | –
CC(C)C[C@H](NC(=O)[C@H](C)NC(=O)[C@@H](NC(=O)[C@H](CCC(=O)O)NC(=O)[C@H](CCCNC(=N)N)NC(=O)[C@H](CCCNC(=N)N)NC(=O)[C@H](CCCNC(=N)N)NC(=O)[C@H](CO)NC(=O)[C@H](CCCNC(=N)N)NC(=O)[C@H](CO)NC(=O)CCC(=O)NCCCOCCOCCOCCCNC(=O)CCCC[C@@H]1SC[C@@H]2NC(=O)N[C@@H]21)[C@@H](C)OP(=O)(O)O)C(=O)O [pHPV33E6] ({X1-Suc}-SRSRRRE[pT]AL-OH) | 191.94 | 293.75 | 830.65 | 566.67 | 412.50 | 111.72 | 370.53 | 400.00 | 4.31 | 1.00 | 10.96 | 2.89 | 2.11 | 7.20 | 3.74 | detectably bound | – | –10.9 ± 0.7 kJ/mol | ~100 | 10.3 | –
CC(C)[C@H](NC(=O)[C@H](CCC(=O)O)NC(=O)[C@@H](NC(=O)[C@H](CCC(=O)O)NC(=O)[C@H](CCCNC(=N)N)NC(=O)[C@H](CCCNC(=N)N)NC(=O)[C@H](CCCNC(=N)N)NC(=O)[C@@H]1CCCN1C(=O)[C@H](CCCCN)NC(=O)[C@H](CO)NC(=O)CCC(=O)NCCCOCCOCCOCCCNC(=O)CCCC[C@@H]1SC[C@@H]2NC(=O)N[C@@H]21)[C@@H](C)OP(=O)(O)O)C(=O)O [pHPV35E6T-6R] ({X1-Suc}-SKPRRRE[pT]EV-OH) | 8483 | 22250 | – | 28958 | 17708 | – | 20421 | 20000 | 2.51 | 1.00 | – | 1.95 | 1.19 | – | 2.72 | – | 139 ± 21 | –1.1 ± 0.5 kJ/mol | 1.5 | – | –
CC(C)[C@H](NC(=O)[C@H](CCC(=O)O)NC(=O)[C@@H](NC(=O)[C@H](CCC(=O)O)NC(=O)[C@H](CCCNC(=N)N)NC(=O)[C@H](CCCNC(=N)N)NC(=O)[C@@H](NC(=O)[C@@H]1CCCN1C(=O)[C@H](CCCCN)NC(=O)[C@H](CO)NC(=O)CCC(=O)NCCCOCCOCCOCCCNC(=O)CCCC[C@@H]1SC[C@@H]2NC(=O)N[C@@H]21)[C@@H](C)O)[C@@H](C)OP(=O)(O)O)C(=O)O [pHPV35E6] ({X1-Suc}-SKPTRRE[pT]EV-OH) | – | – | – | – | – | – | – | – | – | – | – | – | – | – | – | detectably bound | – | – | – | > 300 | Binding affinities (KD) of various 14-3-3-binding motifs, 14-3-3ε (14-3-3ε): √

Source: article PMC7961048, “Hierarchized phosphotarget binding by the seven human 14-3-3 isoforms” (Nature Communications, 2021)
